Test results from PubChem BioAssay (NCI).
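48-hour exposure; five concentrations; linearly interpolated endpoints. The concentration for full growth arrest is given as TGI.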

What was measured:
Test in all cases: NCI-60 cell line screen, 48 h
[1] = tested on: LOX IMVI melanoma
[2] = tested on: KM12 colon
[3] = tested on: NCI-H23 lung
[4] = tested on: M14 melanoma
[5] = tested on: HCT-116 colon
[6] = tested on: NCI-H460 lung
[7] = tested on: NCI/ADR-RES ovarian
[8] = tested on: MDA-MB-231 breast
[9] = tested on: DU-145 prostate
[10] = tested on: SK-OV-3 ovarian
[11] = tested on: HCC-2998 colon
[12] = tested on: MOLT-4 leukemia
[13] = tested on: SF-295 CNS
[14] = tested on: SF-268 CNS
[15] = tested on: PC-3 prostate
[16] = tested on: NCI-H522 lung
[17] = tested on: SNB-19 CNS
[18] = tested on: RPMI-8226 leukemia
[19] = tested on: U251 CNS
[20] = tested on: HCT-15 colon
[21] = tested on: OVCAR-4 ovarian
[22] = tested on: SK-MEL-28 melanoma
[23] = tested on: MALME-3M melanoma
[24] = tested on: T-47D breast
[25] = tested on: IGROV1 ovarian
[26] = tested on: ACHN renal
[27] = tested on: HT29 colon
[28] = tested on: MDA-MB-435
[29] = tested on: TK-10 renal
[30] = tested on: COLO 205 colon
[31] = tested on: HOP-62 NSCLC
[32] = tested on: UO-31 renal
[33] = tested on: OVCAR-3 ovarian
[34] = tested on: HOP-92 NSCLC
[35] = tested on: HL-60(TB) leukemia
[36] = tested on: SK-MEL-5 melanoma
[37] = tested on: BT-549 breast
[38] = tested on: MDA-N
[39] = tested on: A549 NSCLC
[40] = tested on: NCI-H226 lung
[41] = tested on: SR leukemia
[42] = tested on: K-562 leukemia
[43] = tested on: CCRF-CEM leukemia
[44] = tested on: EKVX NSCLC
[45] = tested on: SK-MEL-2 melanoma
[46] = tested on: UACC-62 melanoma
[47] = tested on: SW-620 colon
[48] = tested on: OVCAR-5 ovarian
[49] = tested on: RXF 393 renal
[50] = tested on: A498 renal
[51] = tested on: SN12C renal
[52] = tested on: UACC-257 melanoma
[53] = tested on: OVCAR-8 ovarian
[54] = tested on: SF-539 CNS
[55] = tested on: CAKI-1 renal
[56] = tested on: MCF7 breast
[57] = tested on: HS 578T breast
[58] = tested on: 786-0 renal
[59] = tested on: SNB-75 CNS

Structure (SMILES): COc1cc(-c2c(C#N)c(N)c(C#N)c3c2COc2ccccc2-3)cc(OC)c1OC
- TGI [1]: > 100 µM
- TGI [2]: > 100 µM
- TGI [3]: > 60.8 µM
- TGI [4]: > 100 µM
- TGI [5]: > 100 µM
- TGI [6]: > 100 µM
- TGI [7]: > 100 µM
- TGI [8]: 40.2 µM
- TGI [9]: > 100 µM
- TGI [10]: 32.4 µM
- TGI [11]: > 100 µM
- TGI [12]: > 100 µM
- TGI [13]: 58.5 µM
- TGI [14]: 34 µM
- TGI [15]: > 100 µM
- TGI [16]: > 100 µM
- TGI [17]: > 43.5 µM
- TGI [18]: > 100 µM
- TGI [19]: 34.4 µM
- TGI [20]: > 100 µM
- TGI [21]: > 64.8 µM
- TGI [22]: > 100 µM
- TGI [23]: 48.8 µM
- TGI [24]: > 100 µM
- TGI [25]: > 79.6 µM
- TGI [26]: > 100 µM
- TGI [27]: > 100 µM
- TGI [28]: > 100 µM
- TGI [29]: 40.3 µM
- TGI [30]: > 100 µM
- TGI [31]: 19 µM
- TGI [32]: > 69.8 µM
- TGI [33]: > 83.8 µM
- TGI [34]: 38.6 µM
- TGI [35]: > 100 µM
- TGI [36]: > 100 µM
- TGI [37]: > 75.4 µM
- TGI [38]: > 100 µM
- TGI [39]: > 100 µM
- TGI [40]: 59.4 µM
- TGI [41]: > 100 µM
- TGI [42]: > 100 µM
- TGI [43]: > 100 µM
- TGI [44]: > 69.4 µM
- TGI [45]: > 77.6 µM
- TGI [46]: > 100 µM
- TGI [47]: > 100 µM
- TGI [48]: > 100 µM
- TGI [49]: 34.4 µM
- TGI [50]: > 100 µM
- TGI [51]: > 84.4 µM
- TGI [52]: > 100 µM
- TGI [53]: 97.6 µM
- TGI [54]: 19.9 µM
- TGI [55]: > 100 µM
- TGI [56]: > 100 µM
- TGI [57]: 39.7 µM

Structure (SMILES): CC(=O)Nc1ccccc1C=C1c2ccccc2-c2ccccc21
- TGI [1]: > 100 µM
- TGI [2]: > 100 µM
- TGI [3]: > 100 µM
- TGI [4]: > 100 µM
- TGI [5]: > 100 µM
- TGI [6]: > 100 µM
- TGI [7]: 66.7 µM
- TGI [8]: 58.2 µM
- TGI [9]: > 100 µM
- TGI [11]: > 100 µM
- TGI [12]: > 100 µM
- TGI [13]: 46.2 µM
- TGI [14]: > 100 µM
- TGI [15]: > 100 µM
- TGI [16]: > 100 µM
- TGI [58]: 45.2 µM
- TGI [17]: 45.8 µM
- TGI [18]: > 100 µM
- TGI [19]: 60.4 µM
- TGI [20]: > 100 µM
- TGI [21]: > 100 µM
- TGI [22]: > 100 µM
- TGI [23]: > 100 µM
- TGI [24]: > 100 µM
- TGI [25]: > 100 µM
- TGI [26]: > 100 µM
- TGI [27]: > 100 µM
- TGI [28]: > 100 µM
- TGI [29]: > 100 µM
- TGI [30]: > 100 µM
- TGI [31]: 42.9 µM
- TGI [32]: 38.5 µM
- TGI [33]: 73 µM
- TGI [35]: > 100 µM
- TGI [36]: > 100 µM
- TGI [37]: 98.3 µM
- TGI [38]: > 100 µM
- TGI [39]: > 100 µM
- TGI [40]: 66.8 µM
- TGI [41]: > 100 µM
- TGI [42]: > 100 µM
- TGI [43]: > 100 µM
- TGI [44]: > 100 µM
- TGI [45]: > 100 µM
- TGI [46]: > 100 µM
- TGI [47]: > 100 µM
- TGI [48]: > 100 µM
- TGI [49]: 42.3 µM
- TGI [50]: > 100 µM
- TGI [51]: 53.6 µM
- TGI [52]: > 100 µM
- TGI [53]: 47.4 µM
- TGI [54]: 26.5 µM
- TGI [55]: > 100 µM
- TGI [56]: 50.3 µM
- TGI [57]: > 100 µM
- TGI [59]: 33.7 µM
